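The concentration for 50% growth inhibition is given as GI50. TGI: concentration producing complete growth inhibition.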
Tests used:
Assay in all cases: inhibition of tumour cell growth, NCI panel, 384-well format; in the data active = GI50 below about 0.43 µM; inactive = the rest
[1] = tested on: OVCAR-5 ovarian
[2] = tested on: M14 melanoma
[3] = tested on: NCI-H226 lung
[4] = tested on: NCI-H23 lung
[5] = tested on: NCI-H460 NSCLC
[6] = tested on: SN12C renal
[7] = tested on: CAKI-1 renal
[8] = tested on: SK-MEL-28 melanoma
[9] = tested on: U251 glioblastoma
[10] = tested on: MCF7 breast
[11] = tested on: DU-145 prostate
[12] = tested on: SF-295 CNS
[13] = tested on: SNB-19 CNS
[14] = tested on: BT-549 breast
[15] = tested on: UACC-257 melanoma
[16] = tested on: KM12 colon
[17] = tested on: UO-31 renal
[18] = tested on: PC-3 prostate
[19] = tested on: SR leukemia
[20] = tested on: A498 renal
[21] = tested on: HS 578T breast
[22] = tested on: MDA-MB-435 melanoma
[23] = tested on: LOX IMVI melanoma
[24] = tested on: UACC-62 melanoma
[25] = tested on: HCT-15 colon
[26] = tested on: SF-539 CNS
[27] = tested on: HL-60(TB) leukemia
[28] = tested on: HT29 colon
[29] = tested on: A549 NSCLC
[30] = tested on: T-47D breast
[31] = tested on: SW-620 colon
[32] = tested on: RXF 393 renal
[33] = tested on: MOLT-4 leukemia
[34] = tested on: HCT-116 colon
[35] = tested on: COLO 205 colon
[36] = tested on: ACHN renal
[37] = tested on: NCI-H522 lung
[38] = tested on: EKVX NSCLC
[39] = tested on: OVCAR-4 ovarian
[40] = tested on: SK-OV-3 ovarian
[41] = tested on: MALME-3M melanoma
[42] = tested on: NCI-H322M lung
[43] = tested on: SK-MEL-5 melanoma
[44] = tested on: OVCAR-8 ovarian
[45] = tested on: HOP-62 NSCLC
[46] = tested on: 786-0 renal
[47] = tested on: SNB-75 CNS
[48] = tested on: HOP-92 NSCLC
[49] = tested on: SF-268 CNS
[50] = tested on: HCC-2998 colon
[51] = tested on: IGROV1 ovarian
[52] = tested on: CCRF-CEM leukemia
[53] = tested on: OVCAR-3 ovarian
[54] = tested on: RPMI-8226 leukemia
[55] = tested on: MDA-MB-231 breast
[56] = tested on: TK-10 renal
[57] = tested on: NCI/ADR-RES ovarian
[58] = tested on: MDA-MB-468 breast

CNC(=O)c1ccc(N2C(=S)N(c3cnc(C#N)c(C(F)(F)F)c3)C(=O)C23CCC3)cc1F
inactive: GI50 [1] > 100 µM | GI50 [2] > 100 µM | GI50 [3] > 95.1 µM | GI50 [4] > 100 µM | GI50 [5] > 100 µM | GI50 [6] > 100 µM | GI50 [7] > 100 µM | GI50 [8] > 100 µM | GI50 [9] > 100 µM | GI50 [10] > 100 µM | GI50 [11] > 100 µM | GI50 [12] > 100 µM | GI50 [13] > 100 µM | GI50 [14] > 100 µM | GI50 [15] > 100 µM | GI50 [16] > 100 µM | GI50 [17] > 100 µM | GI50 [18] > 100 µM | GI50 [19] 29 µM | GI50 [20] > 100 µM | GI50 [21] > 100 µM | GI50 [22] > 100 µM | GI50 [23] > 100 µM | GI50 [24] > 100 µM | GI50 [25] > 100 µM | GI50 [26] > 100 µM | GI50 [27] 55.6 µM | GI50 [28] > 100 µM | GI50 [29] > 100 µM | GI50 [30] > 72.4 µM | GI50 [31] > 100 µM | GI50 [32] > 62.4 µM | GI50 [33] 36.4 µM | GI50 [34] > 100 µM | GI50 [35] > 100 µM | GI50 [36] > 100 µM | GI50 [37] > 100 µM | GI50 [38] > 100 µM | GI50 [39] 90.4 µM | GI50 [40] > 100 µM | GI50 [41] > 100 µM | GI50 [42] > 100 µM | GI50 [43] > 100 µM | GI50 [44] > 100 µM | GI50 [45] > 100 µM | GI50 [46] > 100 µM | GI50 [47] > 100 µM | GI50 [48] > 100 µM | GI50 [49] > 100 µM | GI50 [50] > 100 µM | GI50 [51] > 100 µM | GI50 [52] > 100 µM | GI50 [53] > 100 µM | GI50 [54] 69.1 µM | GI50 [55] > 100 µM | GI50 [56] > 100 µM | GI50 [57] > 100 µM | GI50 [58] 55.5 µM
100 µM: TGI [19]
> 100 µM: TGI [1] | TGI [2] | TGI [3] | TGI [4] | TGI [5] | TGI [6] | TGI [7] | TGI [8] | TGI [9] | TGI [10] | TGI [11] | TGI [12] | TGI [13] | TGI [14] | TGI [15] | TGI [16] | TGI [17] | TGI [18] | TGI [20] | TGI [21] | TGI [22] | TGI [23] | TGI [24] | TGI [25] | TGI [26] | TGI [27] | TGI [28] | TGI [29] | TGI [30] | TGI [31] | TGI [32] | TGI [33] | TGI [34] | TGI [35] | TGI [36] | TGI [37] | TGI [38] | TGI [39] | TGI [40] | TGI [41] | TGI [42] | TGI [43] | TGI [44] | TGI [45] | TGI [46] | TGI [47] | TGI [48] | TGI [49] | TGI [50] | TGI [51] | TGI [52] | TGI [53] | TGI [54] | TGI [55] | TGI [56] | TGI [57] | TGI [58]

Source: PubChem BioAssay (NCI)
